In ChEMBL document CHEMBL3046208, “Natural and synthetic podolactones with potential use as natural herbicide models” (2000):
The source made the active and inactive calls. The calls are words filed in the database; no cut-off is given here.

Key:
Assay type in all cases: functional
Hordeum vulgare [1] = assay: Stimulation of root length of Hordeum vulgare (barley) at 0.1 mM after 5 days relative to untreated control
Triticum aestivum [2] = assay: Stimulation of shoot length of Triticum aestivum (wheat) at 0.1 mM after 5 days relative to untreated control
Hordeum vulgare [3] = assay: Stimulation of germination of Hordeum vulgare (barley) at 0.1 mM after 5 days relative to untreated control
Triticum aestivum [4] = assay: Stimulation of root length of Triticum aestivum (wheat) at 0.1 mM after 5 days relative to untreated control
Triticum aestivum [5] = assay: Stimulation of germination of Triticum aestivum (wheat) at 0.1 mM after 5 days relative to untreated control
Allium cepa [6] = assay: Stimulation of root length of Allium cepa (onion) at 0.1 mM after 5 days relative to untreated control
Allium cepa [7] = assay: Stimulation of shoot length of Allium cepa (onion) at 0.1 mM after 5 days relative to untreated control
Allium cepa [8] = assay: Stimulation of germination of Allium cepa (onion) at 0.1 mM after 5 days relative to untreated control
Solanum lycopersicum [9] = assay: Stimulation of shoot length of Solanum lycopersicum (tomato) at 0.1 mM after 5 days relative to untreated control
Solanum lycopersicum [10] = assay: Stimulation of root length of Solanum lycopersicum (tomato) at 0.1 mM after 5 days relative to untreated control
Solanum lycopersicum [11] = assay: Stimulation of germination of Solanum lycopersicum (tomato) at 0.1 mM after 5 days relative to untreated control
Lepidium sativum [12] = assay: Stimulation of shoot length of Lepidium sativum at 0.1 mM after 5 days relative to untreated control
Lepidium sativum [13] = assay: Stimulation of root length of Lepidium sativum at 0.1 mM after 5 days relative to untreated control
Lactuca sativa [14] = assay: Stimulation of shoot length of Lactuca sativa cv. Roman (lettuce) at 0.1 mM after 5 days relative to untreated control
Lepidium sativum [15] = assay: Stimulation of germination of Lepidium sativum at 0.1 mM after 5 days relative to untreated control
Lactuca sativa [16] = assay: Stimulation of root length of Lactuca sativa cv. Roman (lettuce) at 0.1 mM after 5 days relative to untreated control
Lactuca sativa [17] = assay: Stimulation of germination of Lactuca sativa cv. Roman (lettuce) at 0.1 mM after 5 days relative to untreated control
Lactuca sativa [18] = assay: Stimulation of shoot length of Lactuca sativa cv. Nigra (lettuce) at 0.1 mM after 5 days relative to untreated control
Lactuca sativa [19] = assay: Stimulation of root length of Lactuca sativa cv. Nigra (lettuce) at 0.1 mM after 5 days relative to untreated control
Lactuca sativa [20] = assay: Stimulation of germination of Lactuca sativa cv. Nigra (lettuce) at 0.1 mM after 5 days relative to untreated control
Triticum aestivum [21] = assay: Inhibition of shoot length of Triticum aestivum (wheat) at 0.1 mM after 5 days relative to untreated control
Hordeum vulgare [22] = assay: Inhibition of germination of Hordeum vulgare (barley) at 0.1 mM after 5 days relative to untreated control; conditions: 120 h
Hordeum vulgare [23] = assay: Inhibition of root length of Hordeum vulgare (barley) at 0.1 mM after 5 days relative to untreated control; conditions: 120 h
Hordeum vulgare [24] = assay: Stimulation of shoot length of Hordeum vulgare (barley) at 0.1 mM after 5 days relative to untreated control
Lactuca sativa [25] = assay: Inhibition of germination of Lactuca sativa cv. Nigra (lettuce) at 0.1 mM after 5 days relative to untreated control
Lactuca sativa [26] = assay: Inhibition of root length of Lactuca sativa cv. Nigra (lettuce) at 0.1 mM after 5 days relative to untreated control
Lactuca sativa [27] = assay: Inhibition of shoot length of Lactuca sativa cv. Nigra (lettuce) at 0.1 mM after 5 days relative to untreated control; conditions: 120 h
Hordeum vulgare [28] = assay: Inhibition of germination of Hordeum vulgare (barley) at 1 uM after 5 days relative to untreated control; conditions: 120 h
Allium cepa [29] = assay: Inhibition of germination of Allium cepa (onion) at 10 nM after 5 days relative to untreated control; conditions: 120 h
Solanum lycopersicum [30] = assay: Stimulation of root length of Solanum lycopersicum (tomato) at 1 nM after 5 days relative to untreated control
Lactuca sativa [31] = assay: Inhibition of germination of Lactuca sativa cv. Roman (lettuce) at 0.1 mM after 5 days relative to untreated control; conditions: 120 h
Lactuca sativa [32] = assay: Inhibition of root length of Lactuca sativa cv. Roman (lettuce) at 0.1 mM after 5 days relative to untreated control
Lactuca sativa [33] = assay: Inhibition of shoot length of Lactuca sativa cv. Roman (lettuce) at 0.1 mM after 5 days relative to untreated control; conditions: 120 h
Lepidium sativum [34] = assay: Inhibition of germination of Lepidium sativum at 0.1 mM after 5 days relative to untreated control
Lepidium sativum [35] = assay: Inhibition of root length of Lepidium sativum at 0.1 mM after 5 days relative to untreated control; conditions: 120 h
Lepidium sativum [36] = assay: Inhibition of shoot length of Lepidium sativum at 0.1 mM after 5 days relative to untreated control; conditions: 120 h
Solanum lycopersicum [37] = assay: Inhibition of germination of Solanum lycopersicum (tomato) at 0.1 mM after 5 days relative to untreated control; conditions: 120 h
Solanum lycopersicum [38] = assay: Inhibition of root length of Solanum lycopersicum (tomato) at 0.1 mM after 5 days relative to untreated control; conditions: 120 h
Solanum lycopersicum [39] = assay: Inhibition of shoot length of Solanum lycopersicum (tomato) at 0.1 mM after 5 days relative to untreated control; conditions: 120 h
Allium cepa [40] = assay: Inhibition of germination of Allium cepa (onion) at 0.1 mM after 5 days relative to untreated control; conditions: 120 h
Allium cepa [41] = assay: Inhibition of root length of Allium cepa (onion) at 0.1 mM after 5 days relative to untreated control
Allium cepa [42] = assay: Inhibition of shoot length of Allium cepa (onion) at 0.1 mM after 5 days relative to untreated control; conditions: 120 h
Triticum aestivum [43] = assay: Inhibition of germination of Triticum aestivum (wheat) at 0.1 mM after 5 days relative to untreated control
Triticum aestivum [44] = assay: Inhibition of root length of Triticum aestivum (wheat) at 0.1 mM after 5 days relative to untreated control
Hordeum vulgare [45] = assay: Inhibition of shoot length of Hordeum vulgare (barley) at 0.1 mM after 5 days relative to untreated control; conditions: 120 h

**Q.** `COC(=O)[C@@]1(C)CCC[C@]2(C)C3=C(CC[C@@H]12)COC(=O)C3` was tested. Which Activity (Hordeum vulgare [1]) did it give?
**A.** Its Activity is >40%.

**Q.** And the Activity (Triticum aestivum [2])?
**A.** Its Activity is “inactive”.

**Q.** What about the Activity (Hordeum vulgare [3]) of the same compound?
**A.** The Activity was >40%.

**Q.** And the Activity (Triticum aestivum [4])?
**A.** The Activity was “inactive”.

**Q.** What about the Activity (Triticum aestivum [5]) of the same compound?
**A.** The Activity was “inactive”.

**Q.** What about the Activity (Allium cepa [6]) of the same compound?
**A.** The Activity was “inactive”.

**Q.** And the Activity (Allium cepa [7])?
**A.** Its Activity is <20%.

**Q.** What about the Activity (Allium cepa [8]) of the same compound?
**A.** Its Activity is 20%.

**Q.** And the Activity (Solanum lycopersicum [9])?
**A.** The Activity was <20%.

**Q.** What about the Activity (Solanum lycopersicum [10]) of the same compound?
**A.** Its Activity is >40%.

**Q.** What about the Activity (Solanum lycopersicum [11]) of the same compound?
**A.** The Activity was <20%.

**Q.** And the Activity (Lepidium sativum [12])?
**A.** The Activity was <20%.

**Q.** What about the Activity (Lepidium sativum [13]) of the same compound?
**A.** The Activity was <20%.

**Q.** And the Activity (Lactuca sativa [14])?
**A.** Its Activity is <20%.

**Q.** And the Activity (Lepidium sativum [15])?
**A.** The Activity was “inactive”.

**Q.** And the Activity (Lactuca sativa [16])?
**A.** Its Activity is “inactive”.

**Q.** What about the Activity (Lactuca sativa [17]) of the same compound?
**A.** The Activity was <20%.

**Q.** And the Activity (Lactuca sativa [18])?
**A.** The Activity was <20%.

**Q.** What about the Activity (Lactuca sativa [19]) of the same compound?
**A.** Its Activity is “inactive”.

**Q.** What about the Activity (Lactuca sativa [20]) of the same compound?
**A.** Its Activity is “inactive”.

**Q.** What about the inhibition (Triticum aestivum [21]) of the same compound?
**A.** The inhibition was “inactive”.

**Q.** What about the inhibition at 100 µM (Hordeum vulgare [22]) of the same compound?
**A.** The inhibition at 100 µM was > 40%.

**Q.** And the inhibition at 100 µM (Hordeum vulgare [23])?
**A.** The inhibition at 100 µM was > 40%.

**Q.** What about the Activity (Hordeum vulgare [24]) of the same compound?
**A.** The Activity was >40%.

**Q.** What about the inhibition (Lactuca sativa [25]) of the same compound?
**A.** The inhibition was “inactive”.

**Q.** And the inhibition (Lactuca sativa [26])?
**A.** The inhibition was “inactive”.

**Q.** And the inhibition at 100 µM (Lactuca sativa [27])?
**A.** Its inhibition at 100 µM is < 20%.

**Q.** What about the inhibition at 1 µM (Hordeum vulgare [28]) of the same compound?
**A.** The inhibition at 1 µM was -71%.

**Q.** And the inhibition at 0.01 µM (Allium cepa [29])?
**A.** Its inhibition at 0.01 µM is -45%.

**Q.** What about the Activity (Solanum lycopersicum [30]) of the same compound?
**A.** The Activity was 56%.

**Q.** What about the inhibition at 100 µM (Lactuca sativa [31]) of the same compound?
**A.** The inhibition at 100 µM was < 20%.

**Q.** And the inhibition (Lactuca sativa [32])?
**A.** Its inhibition is “inactive”.

**Q.** And the inhibition at 100 µM (Lactuca sativa [33])?
**A.** The inhibition at 100 µM was < 20%.

**Q.** And the inhibition (Lepidium sativum [34])?
**A.** The inhibition was “inactive”.

**Q.** And the inhibition at 100 µM (Lepidium sativum [35])?
**A.** Its inhibition at 100 µM is < 20%.

**Q.** What about the inhibition at 100 µM (Lepidium sativum [36]) of the same compound?
**A.** Its inhibition at 100 µM is < 20%.

**Q.** What about the inhibition at 100 µM (Solanum lycopersicum [37]) of the same compound?
**A.** Its inhibition at 100 µM is < 20%.

**Q.** And the inhibition at 100 µM (Solanum lycopersicum [38])?
**A.** The inhibition at 100 µM was > 40%.

**Q.** And the inhibition at 100 µM (Solanum lycopersicum [39])?
**A.** The inhibition at 100 µM was < 20%.

**Q.** What about the inhibition at 100 µM (Allium cepa [40]) of the same compound?
**A.** Its inhibition at 100 µM is 20%.

**Q.** What about the inhibition (Allium cepa [41]) of the same compound?
**A.** The inhibition was “inactive”.

**Q.** What about the inhibition at 100 µM (Allium cepa [42]) of the same compound?
**A.** Its inhibition at 100 µM is < 20%.

**Q.** What about the inhibition (Triticum aestivum [43]) of the same compound?
**A.** Its inhibition is “inactive”.

**Q.** And the inhibition (Triticum aestivum [44])?
**A.** The inhibition was “inactive”.

**Q.** What about the inhibition at 100 µM (Hordeum vulgare [45]) of the same compound?
**A.** The inhibition at 100 µM was > 40%.
